Experimental findings from patent publication US12404250B2, “PARP inhibitors for treating cancer and asthma” (Oregon Health & Science University, priority 2018, dated 2025) are described below.

The target of assay [1] is T1, PARP 3 (Homo sapiens, UniProt Q9Y6F1).
T1 sequence (Q9Y6F1 1-533): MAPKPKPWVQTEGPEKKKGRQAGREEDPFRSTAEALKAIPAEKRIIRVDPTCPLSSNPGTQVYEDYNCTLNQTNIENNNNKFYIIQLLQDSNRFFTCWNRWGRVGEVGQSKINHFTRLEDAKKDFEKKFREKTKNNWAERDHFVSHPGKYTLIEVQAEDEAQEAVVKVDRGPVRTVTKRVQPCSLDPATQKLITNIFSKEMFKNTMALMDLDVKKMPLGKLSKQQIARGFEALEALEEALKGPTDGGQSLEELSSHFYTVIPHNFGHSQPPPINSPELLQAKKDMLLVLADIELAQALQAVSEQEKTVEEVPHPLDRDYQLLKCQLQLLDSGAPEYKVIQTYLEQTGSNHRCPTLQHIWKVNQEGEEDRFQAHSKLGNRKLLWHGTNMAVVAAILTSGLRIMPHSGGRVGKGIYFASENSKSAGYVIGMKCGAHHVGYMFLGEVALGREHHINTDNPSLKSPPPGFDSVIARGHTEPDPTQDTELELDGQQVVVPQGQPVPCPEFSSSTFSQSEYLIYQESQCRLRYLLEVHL
Nature of the assay: In vitro IC50, PARP3. The format is biochemical. To be noted: SEM from a minimum of three dose-response experiments.

In assay [2] the target is T2, PARP12 (Homo sapiens, UniProt Q9H0J9).
T2 construct: expressed in transfected cells; host or cells: HEK 293T
T2 sequence (Q9H0J9 1-701): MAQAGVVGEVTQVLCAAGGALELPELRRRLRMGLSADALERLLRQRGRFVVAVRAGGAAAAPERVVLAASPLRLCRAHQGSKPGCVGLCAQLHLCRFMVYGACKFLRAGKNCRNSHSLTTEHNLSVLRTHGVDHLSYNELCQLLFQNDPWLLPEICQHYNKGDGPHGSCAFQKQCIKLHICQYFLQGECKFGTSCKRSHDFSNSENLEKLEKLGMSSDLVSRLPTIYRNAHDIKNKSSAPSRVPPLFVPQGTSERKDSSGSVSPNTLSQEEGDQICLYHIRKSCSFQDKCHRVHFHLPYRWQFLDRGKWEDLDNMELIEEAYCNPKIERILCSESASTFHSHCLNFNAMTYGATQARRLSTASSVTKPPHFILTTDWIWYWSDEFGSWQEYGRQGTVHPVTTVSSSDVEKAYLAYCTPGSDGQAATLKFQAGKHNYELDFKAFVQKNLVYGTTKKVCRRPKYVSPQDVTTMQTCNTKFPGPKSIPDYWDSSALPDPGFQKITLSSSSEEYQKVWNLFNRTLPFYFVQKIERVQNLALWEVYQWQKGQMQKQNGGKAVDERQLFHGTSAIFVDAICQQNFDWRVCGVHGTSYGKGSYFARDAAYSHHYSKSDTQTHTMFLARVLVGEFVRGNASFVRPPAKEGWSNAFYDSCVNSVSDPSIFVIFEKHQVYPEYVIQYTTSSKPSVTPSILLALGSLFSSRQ
Kind of assay: In vitro IC50, immunoprecipitated GFP-PARP12 auto-MARylation. The format is biochemical.
Method: Auto-MARylation was analyzed by Western blot with an ADP-ribose (ADPr) binding reagent (uncropped blots shown below).

Assay [3] deals with T3, GFP-PARP11 (Homo sapiens, UniProt Q9NR21).
T3 construct: expressed in transfected cells; host or cells: HeLa
T3 sequence (Q9NR21 1-338): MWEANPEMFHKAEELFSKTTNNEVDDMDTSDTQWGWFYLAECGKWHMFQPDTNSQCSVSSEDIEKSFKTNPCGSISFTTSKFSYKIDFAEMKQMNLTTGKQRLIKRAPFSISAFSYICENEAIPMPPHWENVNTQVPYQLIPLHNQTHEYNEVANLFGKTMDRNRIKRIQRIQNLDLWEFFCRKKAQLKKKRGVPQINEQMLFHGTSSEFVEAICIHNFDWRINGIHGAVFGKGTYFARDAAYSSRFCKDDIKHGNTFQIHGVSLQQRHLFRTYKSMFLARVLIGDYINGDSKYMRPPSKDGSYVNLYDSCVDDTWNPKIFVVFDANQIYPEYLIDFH
Kind of assay: GFP-PARP11 localization at the nuclear envelope in HeLa cells. The format is cell-based. To be noted: HeLa cells transfected with GFP-PARP11, 1 μM for 1 or 18 h. The method, then: FIGS. 5A and 5B depict dissociation from the nuclear envelope in HeLa cells following ITK7 (Example 7) treatment. […] HeLa cells were transfected with GFP-PARP11 grown on glass cover-slips. After ITK7 (1 μM) treatment for 1 or 18 h cells were fixed and mounted using mounting medium containing DAPI. Images were taken on the Olympus FLUOVIEW™ 2000 microscope using an 60x/NA 1.40 oil objective (scale bar 10 μm).
HeLa cells were transfected with GFP-PARP11 grown on glass cover-slips. After ITK7 (1 μM) treatment for 1 or 18 h cells were fixed and mounted using mounting medium containing DAPI. Images were taken on the Olympus FLUOVIEW™ 2000 microscope using an 60x/NA 1.40 oil objective (scale bar 10 μm).

Assay [4] deals with T4, PARP1/2 (Homo sapiens, UniProt P09874).
T4 construct: expressed in transfected cells; host or cells: HEK 293T
Nature of the assay: H2O2-stimulated PARP1/2 activity in HEK 293T cells (Western blot). The format is cell-based. To be noted: H2O2 500 μM for 15 min, Western blot with ADPr binding reagent. On the technique in general: In western blotting, separated proteins are transferred to a membrane and probed.
Method: Lysates were prepared and PAR/MARylation was analyzed by Western blot with an ADP-ribose (ADPr) binding reagent. Blot was also probed with antibodies for GFP and actin. The band of interest represents auto-PARylated GFP-PARP1. […] Lysates were prepared and PAR/MARylation was analyzed by Western blot with an ADP-ribose (ADPr) binding reagent. Blot was also probed with antibodies for GFP and actin.
Lysates were prepared and PAR/MARylation was analyzed by Western blot with an ADP-ribose (ADPr) binding reagent. Blot was also probed with antibodies for GFP and actin. The band of interest represents auto-PARylated GFP-PARP1.

Assay [5] has as its target PARP 1 (Homo sapiens, UniProt P09874). Kind of assay: In vitro IC50, PARP1. The note with it: SEM from a minimum of three dose-response experiments. The format is biochemical.

What is called pIC50 is −log10 of the IC50, conventionally taken in molar units.

pIC50: −log10 of the molar value.

Sequence of PARP 1 (P09874 whole entry): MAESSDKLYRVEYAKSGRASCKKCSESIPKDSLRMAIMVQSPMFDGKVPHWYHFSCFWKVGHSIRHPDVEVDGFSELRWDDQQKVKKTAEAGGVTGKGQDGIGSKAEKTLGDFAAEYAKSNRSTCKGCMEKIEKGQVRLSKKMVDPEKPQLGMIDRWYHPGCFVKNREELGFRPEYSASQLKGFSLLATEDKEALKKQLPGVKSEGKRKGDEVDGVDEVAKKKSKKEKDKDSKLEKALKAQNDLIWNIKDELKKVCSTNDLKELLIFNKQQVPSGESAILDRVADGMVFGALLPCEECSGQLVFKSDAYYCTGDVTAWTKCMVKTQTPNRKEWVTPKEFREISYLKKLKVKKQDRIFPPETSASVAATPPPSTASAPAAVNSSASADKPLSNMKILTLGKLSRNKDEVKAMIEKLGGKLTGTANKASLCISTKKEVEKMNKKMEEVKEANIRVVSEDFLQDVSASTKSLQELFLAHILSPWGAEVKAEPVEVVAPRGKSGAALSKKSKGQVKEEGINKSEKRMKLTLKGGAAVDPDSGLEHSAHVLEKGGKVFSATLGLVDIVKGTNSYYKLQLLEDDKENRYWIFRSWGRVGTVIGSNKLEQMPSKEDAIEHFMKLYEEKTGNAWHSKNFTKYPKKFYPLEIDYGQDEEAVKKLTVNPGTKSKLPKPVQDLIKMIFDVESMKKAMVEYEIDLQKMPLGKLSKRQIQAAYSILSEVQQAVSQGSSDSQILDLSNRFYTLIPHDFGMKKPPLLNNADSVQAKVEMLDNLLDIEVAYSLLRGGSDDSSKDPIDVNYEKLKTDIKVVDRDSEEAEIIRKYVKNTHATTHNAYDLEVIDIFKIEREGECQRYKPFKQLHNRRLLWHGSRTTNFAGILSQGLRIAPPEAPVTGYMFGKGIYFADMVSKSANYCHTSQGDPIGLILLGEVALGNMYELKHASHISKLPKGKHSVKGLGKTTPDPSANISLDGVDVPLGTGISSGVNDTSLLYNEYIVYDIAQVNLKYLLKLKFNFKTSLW
T4 sequence (P09874 2-1014): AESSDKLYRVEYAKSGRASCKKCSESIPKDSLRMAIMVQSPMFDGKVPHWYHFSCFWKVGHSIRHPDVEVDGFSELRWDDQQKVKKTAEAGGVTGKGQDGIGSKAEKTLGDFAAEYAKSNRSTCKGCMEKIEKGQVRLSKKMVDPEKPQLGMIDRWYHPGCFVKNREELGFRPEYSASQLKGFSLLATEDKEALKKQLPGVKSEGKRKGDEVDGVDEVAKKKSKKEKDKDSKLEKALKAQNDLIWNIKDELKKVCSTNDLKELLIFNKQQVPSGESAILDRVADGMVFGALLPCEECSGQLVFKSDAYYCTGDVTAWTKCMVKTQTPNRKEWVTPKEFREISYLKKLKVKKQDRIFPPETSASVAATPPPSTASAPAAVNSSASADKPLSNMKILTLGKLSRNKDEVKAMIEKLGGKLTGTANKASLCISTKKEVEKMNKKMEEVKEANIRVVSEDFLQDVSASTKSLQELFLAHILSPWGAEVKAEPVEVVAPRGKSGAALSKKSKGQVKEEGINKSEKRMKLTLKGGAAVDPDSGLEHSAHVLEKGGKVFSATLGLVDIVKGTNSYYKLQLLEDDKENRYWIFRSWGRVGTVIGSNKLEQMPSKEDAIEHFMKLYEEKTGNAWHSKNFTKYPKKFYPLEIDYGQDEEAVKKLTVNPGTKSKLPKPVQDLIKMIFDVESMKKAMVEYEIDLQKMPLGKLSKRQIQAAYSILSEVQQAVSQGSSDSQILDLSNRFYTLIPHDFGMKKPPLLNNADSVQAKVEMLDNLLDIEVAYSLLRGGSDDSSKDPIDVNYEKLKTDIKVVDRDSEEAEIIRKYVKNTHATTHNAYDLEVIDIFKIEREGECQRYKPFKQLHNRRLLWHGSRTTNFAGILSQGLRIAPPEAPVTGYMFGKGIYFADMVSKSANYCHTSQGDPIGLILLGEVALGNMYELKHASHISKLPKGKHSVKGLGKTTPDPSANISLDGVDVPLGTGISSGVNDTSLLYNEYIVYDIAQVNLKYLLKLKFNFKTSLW

As for `CC#Cc1ccc2c(=O)[nH]c(CSc3ncccn3)nc2c1C` [ITK7, 8-methyl-7-(prop-1-yn-1-yl)-2-((pyrimidin-2-ylthio)methyl)quinazolin-4(3H)-one], the pIC50 is less than 4.52 in assay [1], less than 5.52 in assay [2] and less than 4.52 in assay [5]. Also, the “Dissociation of GFP-PARP11 from the nuclear envelope” value in assay [3] was “causes GFP-PARP11 to dissociate from the nuclear envelope”. Besides, the “Inhibition of H2O2-mediated PARP1 PARylation (PARP½ activity) in cells” value in assay [4] is recorded as “has no effect”.
